Measured values taken from PMC7794376 (Nature Communications, 2021).
“And” between values parts separate entries of the source, which are not always exact repeats. Equal entries are not always repeated. Where two headings read alike, the source gives them in different places.

Key:
MtbCoaBC = MtbCoaBC (Mycobacterium tuberculosis, UniProt P9WNZ1); assay: biochemical; type: biochemical; details: for activity at 0.015625 µM / activity at 0.03125 µM / activity at 0.0625 µM / activity at 0.25 µM / activity at 0.5 µM: relative to average DMSO CT; for Activity R1 / Activity R3: slope of absorbance at 360 vs time (s); for inhibition, IC50 MtbCoaBC 1b / remaining activity relative to control, IC50 MtbCoaBC 1b: three replicates, column head and unit not shown
human CoaB (HCoaB) = human CoaB (HCoaB) (Homo sapiens, UniProt Q9HAB8); assay: EnzChek pyrophosphate assay, HCoaB; type: biochemical; details: for Activity: slope of absorbance at 360 nm vs time (s)
[1] = inhibitor concentration 1 (log 0)
[2] = inhibitor concentration 2 (log 0.30103)
[3] = 3.125 uM 1b, relative to average DMSO CT, replicates R1-R3
[4] = 6.25 uM 1b, relative to average DMSO CT, replicates R1-R3
[5] = 25 uM 1b, relative to average DMSO CT, replicates R1-R3

Sequence of MtbCoaBC (P9WNZ1 whole entry): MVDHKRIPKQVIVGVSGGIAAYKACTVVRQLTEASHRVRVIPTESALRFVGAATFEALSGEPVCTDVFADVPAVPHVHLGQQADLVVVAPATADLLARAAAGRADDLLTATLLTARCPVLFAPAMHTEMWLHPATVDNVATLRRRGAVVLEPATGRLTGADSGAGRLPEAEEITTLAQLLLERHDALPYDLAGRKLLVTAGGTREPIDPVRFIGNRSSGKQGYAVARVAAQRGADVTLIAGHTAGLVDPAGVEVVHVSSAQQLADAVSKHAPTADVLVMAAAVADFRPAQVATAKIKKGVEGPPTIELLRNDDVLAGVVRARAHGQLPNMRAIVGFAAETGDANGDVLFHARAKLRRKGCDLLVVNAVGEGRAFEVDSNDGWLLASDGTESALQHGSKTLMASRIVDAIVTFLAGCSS
Sequence of human CoaB (HCoaB) (Q9HAB8 whole entry): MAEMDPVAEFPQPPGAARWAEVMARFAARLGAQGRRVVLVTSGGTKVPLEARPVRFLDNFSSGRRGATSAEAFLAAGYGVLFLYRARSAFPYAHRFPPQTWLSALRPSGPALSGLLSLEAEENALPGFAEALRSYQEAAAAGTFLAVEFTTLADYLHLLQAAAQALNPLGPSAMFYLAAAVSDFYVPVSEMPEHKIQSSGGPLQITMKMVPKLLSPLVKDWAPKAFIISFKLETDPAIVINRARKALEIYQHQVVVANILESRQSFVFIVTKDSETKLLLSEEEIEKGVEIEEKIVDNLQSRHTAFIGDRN

## O=C(c1ccc(O)cc1)c1ccc(O)c(O)c1O [compound 1b]
MtbCoaBC; 0.015625 uM 1b, replicate R1, read-out: Inhibition % R1
  inhibition at 0.015625 µM: 2.55%
MtbCoaBC; 0.015625 uM 1b, replicate R1, read-out: Activity % R1
  activity at 0.015625 µM: 97.4%
MtbCoaBC; 0.015625 uM 1b, replicate R1
  Activity R1: 0.0001869
MtbCoaBC; 0.015625 uM 1b, replicate R2, read-out: Inhibition % R2
  inhibition at 0.015625 µM: 2.2%
MtbCoaBC; 0.015625 uM 1b, replicate R2, read-out: Activity % R2
  activity at 0.015625 µM: 97.8%
MtbCoaBC; 0.015625 uM 1b, replicate R3, read-out: Inhibition % R3
  inhibition at 0.015625 µM: 1.31%
MtbCoaBC; 0.015625 uM 1b, replicate R3, read-out: Activity % R3
  activity at 0.015625 µM: 98.7%
MtbCoaBC; 0.015625 uM 1b, replicate R3
  Activity R3: 0.0001893
MtbCoaBC; 0.03125 uM 1b, replicate R1, read-out: Inhibition % R1
  inhibition at 0.03125 µM: 6.71%
MtbCoaBC; 0.03125 uM 1b, replicate R1, read-out: Activity % R1
  activity at 0.03125 µM: 93.3%
MtbCoaBC; 0.03125 uM 1b, replicate R1
  Activity R1: 0.0001789
MtbCoaBC; 0.03125 uM 1b, replicate R2, read-out: Inhibition % R2
  inhibition at 0.03125 µM: 2.99%
MtbCoaBC; 0.03125 uM 1b, replicate R2, read-out: Activity % R2
  activity at 0.03125 µM: 97%
MtbCoaBC; 0.03125 uM 1b, replicate R3, read-out: Inhibition % R3
  inhibition at 0.03125 µM: 1.51%
MtbCoaBC; 0.03125 uM 1b, replicate R3, read-out: Activity % R3
  activity at 0.03125 µM: 98.5%
MtbCoaBC; 0.03125 uM 1b, replicate R3
  Activity R3: 0.0001889
MtbCoaBC; 0.0625 uM 1b, replicate R1, read-out: Inhibition % R1
  inhibition at 0.0625 µM: 9.45%
MtbCoaBC; 0.0625 uM 1b, replicate R1, read-out: Activity % R1
  activity at 0.0625 µM: 90.5%
MtbCoaBC; 0.0625 uM 1b, replicate R1
  Activity R1: 0.0001736
MtbCoaBC; 0.0625 uM 1b, replicate R2, read-out: Inhibition % R2
  inhibition at 0.0625 µM: 5.43%
MtbCoaBC; 0.0625 uM 1b, replicate R2, read-out: Activity % R2
  activity at 0.0625 µM: 94.6%
MtbCoaBC; 0.0625 uM 1b, replicate R3, read-out: Inhibition % R3
  inhibition at 0.0625 µM: 12.9%
MtbCoaBC; 0.0625 uM 1b, replicate R3, read-out: Activity % R3
  activity at 0.0625 µM: 87.1%
MtbCoaBC; 0.0625 uM 1b, replicate R3
  Activity R3: 0.0001671
MtbCoaBC; 0.25 uM 1b, replicate R1, read-out: Inhibition % R1
  inhibition at 0.25 µM: 34.5%
MtbCoaBC; 0.25 uM 1b, replicate R1, read-out: Activity % R1
  activity at 0.25 µM: 65.5%
MtbCoaBC; 0.25 uM 1b, replicate R1
  Activity R1: 0.0001256
MtbCoaBC; 0.25 uM 1b, replicate R2, read-out: Inhibition % R2
  inhibition at 0.25 µM: 38.6%
MtbCoaBC; 0.25 uM 1b, replicate R2, read-out: Activity % R2
  activity at 0.25 µM: 61.4%
MtbCoaBC; 0.25 uM 1b, replicate R3, read-out: Inhibition % R3
  inhibition at 0.25 µM: 42.2%
MtbCoaBC; 0.25 uM 1b, replicate R3, read-out: Activity % R3
  activity at 0.25 µM: 57.8%
MtbCoaBC; 0.25 uM 1b, replicate R3
  Activity R3: 0.0001108
MtbCoaBC; 0.5 uM 1b, replicate R1, read-out: Inhibition % R1
  inhibition at 0.5 µM: 89.6%
MtbCoaBC; 0.5 uM 1b, replicate R1, read-out: Activity % R1
  activity at 0.5 µM: 10.4%
MtbCoaBC; 0.5 uM 1b, replicate R1
  Activity R1: 0.000019995
MtbCoaBC; 0.5 uM 1b, replicate R2, read-out: Inhibition % R2
  inhibition at 0.5 µM: 80.6%
MtbCoaBC; 0.5 uM 1b, replicate R2, read-out: Activity % R2
  activity at 0.5 µM: 19.4%
MtbCoaBC; 0.5 uM 1b, replicate R3, read-out: Inhibition % R3
  inhibition at 0.5 µM: 86.3%
MtbCoaBC; 0.5 uM 1b, replicate R3, read-out: Activity % R3
  activity at 0.5 µM: 13.7%
MtbCoaBC; 0.5 uM 1b, replicate R3
  Activity R3: 0.000026339
MtbCoaBC; [1]
  inhibition, IC50 MtbCoaBC 1b: 96.33 and 92.35 and 100.00
  remaining activity relative to control, IC50 MtbCoaBC 1b: -0.335 and 3.671 and 7.649
MtbCoaBC; [2]
  inhibition, IC50 MtbCoaBC 1b: 100.00
  remaining activity relative to control, IC50 MtbCoaBC 1b: -0.361 and -1.371 and -2.001
MtbCoaBC; read-out: IC50 EnzChek MtbCoaBC
  IC50: 0.28 ± 0.05 µM
Human CoaB (HCoaB); 1 µM enzyme, average of three independent experiments ± SD
  IC50: 122 ± 22 µM
Human CoaB (HCoaB); [3]
  Activity %: 96.65% and 97.82%
  activity at 3.125 µM: 97.6%
Human CoaB (HCoaB); 3.125 uM 1b, replicates R1-R3
  Inhibition %: 2.18% and 2.43%
  inhibition at 3.125 µM: 3.35%
  Activity: 0.0001351 and 0.0001338 and 0.0001354
Human CoaB (HCoaB); [4]
  Activity %: 95.26% and 96.32%
  activity at 6.25 µM: 97.7%
Human CoaB (HCoaB); 6.25 uM 1b, replicates R1-R3
  Inhibition %: 4.74% and 3.68% and 2.34%
  Activity: 0.0001352 and 0.0001319 and 0.0001333
Human CoaB (HCoaB); [5]
  Activity %: 82.72% and 82.77%
  activity at 25 µM: 81.5%
Human CoaB (HCoaB); 25 uM 1b, replicates R1-R3
  Inhibition %: 17.23% and 18.55%
